Results reported in patent US20040171045A1, “Assay for predicting cell activity” (IsoTis N.V., priority 2001, published 2004).

Tested on: human bone marrow stromal cells (HBMSC)
Experiment: Temporal expression of ALP in HBMSC cultures by flow cytometry, (+) dex versus control medium
Format: cell-based
Conditions: 10^−8 M dex, average of day 3 to day 9
Experimental: The expression of ALP was evaluated by flow cytometry at several culture periods (from day 1 to day 9, three to four measurements were performed for each culture). Briefly, after trypsinisation, cells were washed twice in wash buffer and blocked against non-specific binding (see above). Cells (approx. 0.1-0.3E6/staining) were then resuspended in blocking buffer containing: (a) control mouse anti-human IgG2a (1:5 dilution) and (b) ALP monoclonal antibody (1:10 dilution). After incubation on ice for 45 minutes and washing, antibody reactivity was detected by suspending the cells with blocking buffer containing goat anti-mouse IgGγ-chain-specific-FITC (1:5 dilution). Cells were incubated on ice and in the dark for 30 minutes. After washing, the cells were resuspended in 200 μl of FACS-flow/staining and analyzed using a FACS Calibur apparatus (Becton Dickinson Immunocytometry systems). For each measurement 10,000 events were collected.

C[C@@H]1C[C@H]2[C@@H]3CCC4=CC(=O)C=C[C@]4(C)[C@@]3(F)[C@@H](O)C[C@]2(C)[C@@]1(O)C(=O)CO [dex, dexamethasone]
Ratio between the fraction of ALP+ cells in the (+) dex and control conditions (Donor 1 (U00079)): 1.53 | Ratio between the fraction of ALP+ cells in the (+) dex and control conditions (Donor 2 (U00084)): 1.53 | Ratio between the fraction of ALP+ cells in the (+) dex and control conditions (Donor 3 (U00169)): 1.40 | Ratio between the fraction of ALP+ cells in the (+) dex and control conditions (Donor 4 (U00182-2)): 2.71 | Ratio between the fraction of ALP+ cells in the (+) dex and control conditions (Donor 5 (U00212)): 2.53 | Ratio between the fraction of ALP+ cells in the (+) dex and control conditions (Donor 6 (U00230)): 1.52 | Ratio between the fraction of ALP+ cells in the (+) dex and control conditions (Donor 7 (U00106)): 1.25 | Ratio between the fraction of ALP+ cells in the (+) dex and control conditions (Donor 8 (U00173)): 3.72 | Ratio between the fraction of ALP+ cells in the (+) dex and control conditions (Donor 9 (U00174)): 1.56 | Ratio between the fraction of ALP+ cells in the (+) dex and control conditions (Donor 11 (U00179)): 2.40 | Ratio between the fraction of ALP+ cells in the (+) dex and control conditions (Donor 12 (U00090)): 2.56 | Ratio between the fraction of ALP+ cells in the (+) dex and control conditions (Donor 13 (U00180)): 1.55 | Ratio between the fraction of ALP+ cells in the (+) dex and control conditions (Donor 14 (U00091)): 1.80
